Entries after “also recorded” stand apart in the source; their conditions may differ.

These results are taken from US10370728B2, “Antibiotic susceptibility testing using probes for preribosomal RNA” (THE REGENTS OF THE UNIVERSITY OF CALIFORNIA, priority 2012, dated 2019).

Assay [1] has as its system susceptible strain of E. coli. Kind of assay: Response of pre-rRNA to cefazolin in log phase culture. The format is cell-based. Particulars: log phase of growth, within 30 min after addition.
The subject of assay [2] is E. coli clinical urine isolate EC103. Put plainly: Electrochemical sensor assay of pre-rRNA and mature rRNA in E. coli EC103 cultures spiked with antibiotics. It is filed as cell-based. As to conditions: EC103 culture in MH broth, antibiotic added at 150 or 210 min; 25 μg/ml Rifampicin, 25 μg/ml Chloramphenicol, 4 μg/ml Ciprofloxacin, 16 μg/ml Gentamicin; vs culture without antibiotic. On the procedure:
Bacterial Strains and Media. E. coli clinical urine isolate EC103 (Amp^R) was obtained from the University of California-Los Angeles (UCLA) Clinical Microbiology Laboratory with approval from the UCLA and Veterans' Affair Institutional Review Boards and appropriate Health Insurance Portability and Accountability Act exemptions. EC103 was inoculated into Mueller Hinton (MH) broth with 12% glycerol (Becton Dickinson, Sparks, Md.) and stored at -80° C. EC103 was cultured overnight in MH broth with 64 μ[…] (Sigma, St. Louis, Mo.). EC103 was plated on Luria Broth (LB) agar (MOBIO Laboratories Inc., Carlsbad, Calif.) for counting colony-forming units (CFUs). EC103 Growth and Target Copy Number Experiments. Overnight cultures of EC103 were prepared by adding 5 μl of EC103 glycerol stock to 5 ml of MH broth with ampicillin and incubated at 37° C. overnight with shaking. The following day, the EC103 culture was diluted by adding 10 μl of the overnight culture to 100 ml of prewarmed and […] MH broth in a 500 ml flask, followed by incubation at 37° C. with shaking at 250 rpm. Every 30 min, including at 0 min and the overnight culture itself, a 1 ml sample was taken for OD600 measurement and 10-fold serial dilutions (100 μl into 900 μl) were performed in room temperature MH broth. Cell density was determined by plating serial dilutions in triplicate. At each time point, culture samples were transferred to an ice water bath or centrifuged immediately at 4° C. for 3 min at 14,000 rpm. The supernatants were then removed by aspiration, flash frozen in a dry ice-ethanol bath and stored at -80° C. […] Electrochemical detection. […] For thiolated capture probes, disposable 16-sensor bare Au electrode arrays were obtained from GeneFluidics ([…], Calif.). Each sensor of the array consisted of a 2.5 mm diameter central working electrode, surrounded by an Au counter electrode and an Au pseudo-reference electrode. The sensor chip was driven by a computer-controlled Helios multichannel electrochemical workstation (GeneFluidics, […], Calif.). Washing steps were carried out after each application of reagents by applying a stream of deionized H2O to the sensor surface for approximately 2-3 sec followed by 5 sec of drying under a stream of nitrogen. Prior to addition of the first reagent, the bare gold chips were dried as described above. To functionalize the working sensor surface, a fresh mixture of 0.05 μM thiolated capture probe and 300 μM 1,6-hexanedithiol (96%, Sigma, St. Louis, Mo.) was prepared in 10 mM Tris-HCl, 1 mM EDTA and 0.3 M NaCl (pH 8.0) and allowed to stand at room temperature for 10 min. […] This was then combined with the CFU/ml values determined by plating for each time point to generate target molecule number per CFU measurements.

In the case of `Cc1nnc(SCC2=C(C(=O)O)N3C(=O)[C@@H](NC(=O)Cn4cnnn4)[C@H]3SC2)s1` [cefazolin], the “drop in the amount of pre-rRNA compared to a culture without the antibiotic” value in assay [1] is listed as “one-log drop”. On to `O=C(N[C@H](CO)[C@H](O)c1ccc([N+](=O)[O-])cc1)C(Cl)Cl` [chloramphenicol, Chloramphenicol], for which, in assay [2], the “effect on mature rRNA level” value is on record as “decrease of mature rRNA; also recorded: selective decrease in mature rRNA” and the “effect on pre-rRNA level” value is on record as “selective increase in pre-rRNA”. For Gentamicin, in assay [2], the “effect on mature rRNA level” value was “decrease in the pool of mature rRNA; also recorded: selective decrease in mature rRNA” and the “effect on pre-rRNA level” value is recorded as “without affecting the level of pre-rRNA”.
